Literature values as cited in article PMC8302504, “Efficacy of Fenfluramine and Norfenfluramine Enantiomers and Various Antiepileptic Drugs in a Zebrafish Model of Dravet Syndrome” (Neurochemical Research, 2021).

Conditions: 5 dpf zebrafish larvae, 1 h incubation with 15 µg/mL; cited from earlier work

O=C(CCCN1CCC(O)(c2ccc(Cl)cc2)CC1)c1ccc(F)cc1 [haloperidol]
head uptake (recovered concentration): 21.6 µg/g
